Data as given in ChEMBL document CHEMBL6103620, “Gymnopeptides C and D, Highly N-Methylated Fungal Cyclopeptides” (J Nat Prod, 2025).
Activity calls are given as the source filed them. No cut-off for these calls is given here. Square brackets hold non-standard residues; d marks the D form. Peptide text beside a SMILES is read from it. ξ: configuration not given here. Thr(3ξ) = CC(O)[C@H](N)C(=O)O; NMeV = CN[C@H](C(=O)O)C(C)C; NMeA = CN[C@@H](C)C(=O)O; Sar = CNCC(=O)O

Assays:
HaCaT = assay: Antiproliferative activity against human HaCaT cells assessed as reduction in cell viability incubated for 72 hrs by MTT assay; format: functional, cell-based
A-375 [1] = assay: Inhibition of cell migration in human A-375 cells assessed as decrease in number of cell migration into lower compartment at 50 nM measured after 16 hrs; format: functional, cell-based
A-375 [2] = assay: Antiproliferative activity against human A-375 cells assessed as reduction in cell viability incubated for 72 hrs by MTT assay; format: functional, cell-based
A-375 [3] = assay: Inhibition of cell migration in human A-375 cells assessed as reduction in cell numbers in wound area at 5 nM incubated for 72 hrs by methyl green staining based scratch assay; format: functional
A-375 [4] = assay: Induction of apoptosis in human A-375 cells assessed as increase in caspase-3 activity at 50 nM incubated for 24 hrs; format: functional, cell-based

With `CC(C)[C@@H]1NC(=O)[C@H](C(C)C)N(C)C(=O)[C@H](C)NC(=O)[C@H]([C@H](C)O)N(C)C(=O)[C@H](C(C)C)NC(=O)[C@@H]2CCCN2C(=O)[C@H](C(C)C)NC(=O)[C@H](C)N(C)C(=O)[C@H](C(C)C)N(C)C(=O)CN(C)C(=O)[C@H](C)NC(=O)[C@H](C(C)C)N(C)C(=O)[C@H](C)NC(=O)[C@H](C(C)C)N(C)C(=O)[C@H](C(C)C)NC(=O)[C@H](C(C)C)N(C)C(=O)[C@H](C(C)C)NC(=O)[C@H](C(C)C)N(C)C1=O` the Activity (HaCaT) was “Dose-dependent-effect”, the inhibition (A-375 [1]) was “Active” and the Activity (A-375 [2]) was “Dose-dependent-effect”. The inhibition (A-375 [3]) was “Active; Significant Effect Observed” and the Activity (A-375 [4]) was “Active”.

For `CC(C)[C@@H]1NC(=O)[C@H](C(C)C)N(C)C(=O)[C@H]([C@@H](C)O)NC(=O)[C@H](C(C)C)N(C)C(=O)[C@H](C(C)C)NC(=O)[C@H](C(C)C)N(C)C(=O)[C@H](C(C)C)NC(=O)[C@H](C(C)C)N(C)C(=O)[C@H](C(C)C)NC(=O)[C@H](C(C)C)N(C)C(=O)[C@H](C)NC(=O)[C@@H]([C@@H](C)O)N(C)C(=O)[C@H](C(C)C)NC(=O)[C@@H]2CCCN2C(=O)[C@H](C)NC(=O)[C@H](C)N(C)C(=O)[C@H](C(C)C)N(C)C(=O)CN(C)C1=O`, the Activity (HaCaT) was “Dose-dependent-effect”, the inhibition (A-375 [1]) was “Active” and the Activity (A-375 [2]) was “Dose-dependent-effect”. The inhibition (A-375 [3]) was “Active; Significant Effect Observed” and the Activity (A-375 [4]) was “Active”.

In the case of `CC(C)[C@@H]1NC(=O)[C@H](C(C)C)N(C)C(=O)[C@H](C)NC(=O)[C@H](C(C)C)N(C)C(=O)[C@H](C(C)C)NC(=O)[C@H](C(C)C)N(C)C(=O)[C@H](C(C)C)NC(=O)[C@H](C(C)C)N(C)C(=O)[C@H](CO)NC(=O)[C@H](C(C)C)N(C)C(=O)[C@H](C)NC(=O)[C@H](C(C)C)N(C)C(=O)[C@H](C)NC(=O)CN(C)C(=O)[C@H](C(C)C)NC(=O)[C@H](C)N(C)C(=O)[C@H](C(C)C)N(C)C(=O)CN(C)C1=O` (cyclo(A[NMeV]A[NMeV]S[NMeV]V[NMeV]V[NMeV]A[NMeV]V[Sar][NMeV][NMeA]V[Sar])), the Activity (HaCaT) was “Dose-dependent-effect”, the inhibition (A-375 [1]) was “Active” and the Activity (A-375 [2]) was “Dose-dependent-effect”. For the same compound, the inhibition (A-375 [3]) was “Active; Significant Effect Observed” and the Activity (A-375 [4]) was “Active; Significant Effect Was Not Observed”.

For `CC(C)[C@@H]1NC(=O)[C@H](C(C)C)N(C)C(=O)[C@H](C)NC(=O)[C@H](C(C)C)N(C)C(=O)[C@H](C(C)C)NC(=O)[C@H](C(C)C)N(C)C(=O)[C@H](C(C)C)NC(=O)[C@H](C(C)C)N(C)C(=O)[C@H](C(C)O)NC(=O)[C@H](C(C)C)N(C)C(=O)[C@H](C)NC(=O)[C@H](C(C)C)N(C)C(=O)[C@H](C)NC(=O)CN(C)C(=O)[C@H](C(C)C)NC(=O)[C@H](C)N(C)C(=O)[C@H](C(C)C)N(C)C(=O)CN(C)C1=O` (stereo not given in full) (cyclo(A[NMeV]A[NMeV][Thr(3ξ)][NMeV]V[NMeV]V[NMeV]A[NMeV]V[Sar][NMeV][NMeA]V[Sar])), the Activity (HaCaT) was “Dose-dependent-effect”, the inhibition (A-375 [1]) was “Active” and the Activity (A-375 [2]) was “Dose-dependent-effect”. The inhibition (A-375 [3]) was “Active; Significant Effect Observed” and the Activity (A-375 [4]) was “Active”.
